Experimental data as given in patent publication US9023789B2, “Amylin analogs and pharmaceutical compositions thereof” (Novo Nordisk A/S, priority 2012, dated 2015).
Numbered stars: 1 amine (or outer) side, 2 acyl side, 3 side chain; on linkers, the order of the positions; unused ones are H or OH. Bridge positions count the residues as written; N and C are the ends. Side chains are listed from the residue outwards. Peptide text beside a SMILES is read from it. * marks the point of attachment. C20 diacid = O=C(O)CCCCCCCCCCCCCCCCCCC(=O)*; γGlu = O=C(O)[C@H](CCC(=O)[*:2])N[*:1]

Assays:
[1] = target: T1, human amylin 3(a) receptor (human calcitonin receptor + RAMP-3) in BHK570 cells (Homo sapiens, UniProt O60896+P30988); test: ASSAY (II)a functional assay, human amylin receptor (CRE luciferase); format: cell-based
T1 construct: expressed in transfected cells
Method in brief: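 Readout is luminescence from a cAMP-responsive CRE-luc reporter, developed with LucLite for 30 min at room temperature. Cells were treated for 3 h at 37 °C in 10% FBS/DMEM buffered with 10 mM Hepes (pH 7.4).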

rat calcitonin receptor = target: T2, rat calcitonin receptor (Rattus norvegicus, UniProt P32214); test: ASSAY (VIII) binding to the rat calcitonin receptor; conditions: Table 7, read-out: rCTR bind IC50
T2 construct: expressed in transfected cells; host or cells: BHK tk'ts 13 (transient, FuGENE 6), membranes
T2 sequence (P32214 25-479 isoform P32214-2 limits assumed): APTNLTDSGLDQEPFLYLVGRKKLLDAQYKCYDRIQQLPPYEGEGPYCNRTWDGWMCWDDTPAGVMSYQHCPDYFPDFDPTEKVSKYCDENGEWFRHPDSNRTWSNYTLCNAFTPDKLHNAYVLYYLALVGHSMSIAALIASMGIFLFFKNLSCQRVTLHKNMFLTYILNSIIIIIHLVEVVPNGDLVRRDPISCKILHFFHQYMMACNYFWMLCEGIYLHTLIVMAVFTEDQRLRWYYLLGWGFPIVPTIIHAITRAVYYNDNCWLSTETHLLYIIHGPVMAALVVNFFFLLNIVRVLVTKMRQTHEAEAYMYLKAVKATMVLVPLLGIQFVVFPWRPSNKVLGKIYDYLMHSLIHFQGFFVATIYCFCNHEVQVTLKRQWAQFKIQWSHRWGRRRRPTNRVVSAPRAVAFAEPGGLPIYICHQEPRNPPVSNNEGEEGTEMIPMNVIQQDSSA
Method in brief: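 Cell membranes for binding came from BHK tk′ts 13 cells harvested approximately 48 hours after transient transfection with the rat receptor.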

[2] = target: T3, human amylin receptor (membranes from Amylin 3(a)/CRE-luc cells) (Homo sapiens, UniProt O60896+P30988); test: ASSAY (V) binding to the human amylin receptor (SPA, 125I-rat amylin);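 note: competition binding of cell membranes (35 ng/µL) mixed with SPA beads in 384-well plates at 40 µL total volume, read by scintillation counting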
T3 construct: expressed in transfected cells
T3 sequence (P30988 25-474): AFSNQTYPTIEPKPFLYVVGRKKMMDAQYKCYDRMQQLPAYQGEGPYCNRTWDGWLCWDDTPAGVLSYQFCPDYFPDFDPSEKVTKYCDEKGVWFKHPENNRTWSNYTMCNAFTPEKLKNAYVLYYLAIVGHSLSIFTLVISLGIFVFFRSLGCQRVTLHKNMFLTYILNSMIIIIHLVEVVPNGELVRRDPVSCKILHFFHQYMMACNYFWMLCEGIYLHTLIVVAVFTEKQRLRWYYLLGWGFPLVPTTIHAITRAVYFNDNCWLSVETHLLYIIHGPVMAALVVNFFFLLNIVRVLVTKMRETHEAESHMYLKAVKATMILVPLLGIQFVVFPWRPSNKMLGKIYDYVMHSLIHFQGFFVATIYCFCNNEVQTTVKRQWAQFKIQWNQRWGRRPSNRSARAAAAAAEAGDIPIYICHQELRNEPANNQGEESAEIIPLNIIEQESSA
T3 sequence (O60896 24-148 partner): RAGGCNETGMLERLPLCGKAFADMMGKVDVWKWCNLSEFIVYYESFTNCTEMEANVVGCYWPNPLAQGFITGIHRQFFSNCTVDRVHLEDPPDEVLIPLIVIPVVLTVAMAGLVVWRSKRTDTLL

[3] = hCTR funct. EC50 / hAmylin-R funct. EC50
[4] = hCTR funct. EC50 divided by hAmylin-R funct. EC50
[5] = hCTR funct. EC50 over hAmylin-R funct. EC50
[6] = human functional selectivity: hCTR funct. EC50 / hAmylin-R funct. EC50
[7] = Table 5, selectivity, hCTR bind IC50 / hAmylin-R bind IC50
[8] = Table 7, human binding selectivity, included for comparison
[9] = Table 5a, selectivity, hCTR bind IC50 / hAmylin-R bind IC50
[10] = Table 5b, selectivity, hCTR bind IC50 / hAmylin-R bind IC50
[11] = Table 7a (preferred compounds), human binding selectivity, included for comparison
[12] = ratio of human calcitonin receptor binding IC50 to human amylin receptor binding IC50

Row | SMILES | Ratio hCT/hAmylin funct. [1, 3] | Ratio hCT/hAmylin funct. [1, 4] | Ratio hCT/hAmylin funct. [1, 5] | Ratio hCT/hAmylin funct. [1, 6] | IC50 (rat calcitonin receptor) | Ratio hCT/hAmylin binding [2, 7] | Ratio hCT/hAmylin binding [2, 8] | Ratio hCT/hAmylin binding [2, 9] | Ratio hCT/hAmylin binding [2, 10] | Ratio hCT/hAmylin binding [2, 11] | Ratio hCT/hAmylin binding [2, 12] | Ratio hCT/hAmylin binding ([2]; Table 5c, selectivity, hCTR bind IC50 / hAmylin-R bind IC50)
1 | CC[C@H](C)[C@H](NC(=O)[C@H](C)NC(=O)CNC(=O)[C@H](Cc1ccccc1)NC(=O)[C@H](CC(N)=O)NC(=O)[C@@H]1CCCN1C(=O)[C@H](CO)NC(=O)[C@H](CO)NC(=O)[C@H](Cc1c[nH]cn1)NC(=O)[C@H](CCCNC(=N)N)NC(=O)[C@H](CC(C)C)NC(=O)[C@H](Cc1ccccc1)NC(=O)[C@H](CCC(=O)O)NC(=O)[C@H](C)NC(=O)[C@H](CC(C)C)NC(=O)[C@H](CCCNC(=N)N)NC(=O)[C@H](CCC(N)=O)NC(=O)[C@@H](NC(=O)[C@H](C)NC(=O)[C@@H]1CSSC[C@H](NC(=O)[C@@H](N)CCCCNC(=O)CC[C@H](NC(=O)CCCCCCCCCCCCCCCCCCC(=O)O)C(=O)O)C(=O)N[C@@H](CC(N)=O)C(=O)N[C@@H]([C@@H](C)O)C(=O)N[C@@H](C)C(=O)N[C@@H]([C@@H](C)O)C(=O)N1)[C@@H](C)O)C(=O)N1CCC[C@H]1C(=O)N[C@@H](CO)C(=O)N[C@@H](CO)C(=O)N[C@H](C(=O)N[C@@H](CC(N)=O)C(=O)N[C@H](C(=O)NCC(=O)N[C@@H](CO)C(=O)N[C@@H](CC(N)=O)C(=O)N[C@H](C(=O)N1CCC[C@H]1C(N)=O)[C@@H](C)O)C(C)C)[C@@H](C)O [Example 12] (H-K([γGlu-C20 diacid])CNTATCATQRLAEFLRHSSPNFGAIPSSTNVGSNTP-NH2; disulfide 2-7 (inferred); N-terminus assumed) | 1.8 | 1.8 | 1.8 | 1.8 | 2.71 nM | 2.5 | 2.5 | – | – | – | – | –
2 | CC[C@H](C)[C@H](NC(=O)[C@H](C)NC(=O)CNC(=O)[C@H](Cc1ccccc1)NC(=O)[C@H](CC(N)=O)NC(=O)[C@@H]1CCCN1C(=O)[C@H](CO)NC(=O)[C@H](CO)NC(=O)[C@H](Cc1c[nH]cn1)NC(=O)[C@H](CCCNC(=N)N)NC(=O)[C@H](CC(C)C)NC(=O)[C@H](Cc1ccccc1)NC(=O)[C@H](CCC(=O)O)NC(=O)[C@H](C)NC(=O)[C@H](CC(C)C)NC(=O)[C@H](CCCNC(=N)N)NC(=O)[C@H](CCC(N)=O)NC(=O)[C@@H](NC(=O)[C@H](C)NC(=O)[C@@H]1CSSC[C@H](NC(=O)[C@H](CCCCN)NC(=O)CC[C@H](NC(=O)CCCCCCCCCCCCCCCCCCC(=O)O)C(=O)O)C(=O)N[C@@H](CC(N)=O)C(=O)N[C@@H]([C@@H](C)O)C(=O)N[C@@H](C)C(=O)N[C@@H]([C@@H](C)O)C(=O)N1)[C@@H](C)O)C(=O)N1CCC[C@H]1C(=O)N[C@@H](CO)C(=O)N[C@@H](CO)C(=O)N[C@H](C(=O)N[C@@H](CC(N)=O)C(=O)N[C@H](C(=O)NCC(=O)N[C@@H](CO)C(=O)N[C@@H](CCCNC(=N)N)C(=O)N[C@H](C(=O)N[C@@H](Cc1ccc(O)cc1)C(N)=O)[C@@H](C)O)C(C)C)[C@@H](C)O [Example 16] ({C20 diacid-γGlu}-KCNTATCATQRLAEFLRHSSPNFGAIPSSTNVGSRTY-NH2; disulfide 2-7) | – | 6.1 | 6.1 | 6.1 | 55.2 nM | 19.1 | 19.1 | 19.1 | 19.1 | 19.1 | 19.1 | –
3 | CC[C@H](C)[C@H](NC(=O)[C@H](C)NC(=O)CNC(=O)[C@H](Cc1ccccc1)NC(=O)[C@H](CC(N)=O)NC(=O)[C@@H]1CCCN1C(=O)[C@H](CO)NC(=O)[C@H](CO)NC(=O)[C@H](Cc1c[nH]cn1)NC(=O)[C@H](CCCNC(=N)N)NC(=O)[C@H](CC(C)C)NC(=O)[C@H](Cc1ccccc1)NC(=O)[C@H](CCC(=O)O)NC(=O)[C@H](C)NC(=O)[C@H](CC(C)C)NC(=O)[C@H](CCCNC(=N)N)NC(=O)[C@H](CCC(N)=O)NC(=O)[C@@H](NC(=O)[C@H](C)NC(=O)[C@@H]1CSSC[C@H](NC(=O)[C@H](CCCCN)NC(=O)COCCOCCNC(=O)COCCOCCNC(=O)CC[C@H](NC(=O)CCCCCCCCCCCCCCCCCCC(=O)O)C(=O)O)C(=O)N[C@@H](CC(N)=O)C(=O)N[C@@H]([C@@H](C)O)C(=O)N[C@@H](C)C(=O)N[C@@H]([C@@H](C)O)C(=O)N1)[C@@H](C)O)C(=O)N1CCC[C@H]1C(=O)N[C@@H](CO)C(=O)N[C@@H](CO)C(=O)N[C@H](C(=O)N[C@@H](CC(N)=O)C(=O)N[C@H](C(=O)NCC(=O)N[C@@H](CO)C(=O)N[C@@H](CC(N)=O)C(=O)N[C@H](C(=O)N[C@@H](Cc1ccc(O)cc1)C(N)=O)[C@@H](C)O)C(C)C)[C@@H](C)O [Example 19] | – | 17.4 | 17.4 | 17.4 | 95.6 nM | 36.7 | 36.7 | 36.7 | 36.7 | 36.7 | 36.7 | 36.7
4 | CC[C@H](C)[C@H](NC(=O)[C@H](C)NC(=O)CNC(=O)[C@H](Cc1ccccc1)NC(=O)[C@H](CC(N)=O)NC(=O)[C@@H]1CCCN1C(=O)[C@H](CO)NC(=O)[C@H](CO)NC(=O)[C@H](Cc1c[nH]cn1)NC(=O)[C@H](CCCNC(=N)N)NC(=O)[C@H](CC(C)C)NC(=O)[C@H](Cc1ccccc1)NC(=O)[C@H](CCC(=O)O)NC(=O)[C@H](C)NC(=O)[C@H](CC(C)C)NC(=O)[C@H](CCCNC(=N)N)NC(=O)[C@H](CCC(N)=O)NC(=O)[C@@H](NC(=O)[C@H](C)NC(=O)[C@@H]1CSSC[C@H](NC(=O)[C@@H](N)CCCCNC(=O)CC[C@H](NC(=O)CCCCCCCCCCCCCCCCCCC(=O)O)C(=O)O)C(=O)N[C@@H](CC(N)=O)C(=O)N[C@@H]([C@@H](C)O)C(=O)N[C@@H](C)C(=O)N[C@@H]([C@@H](C)O)C(=O)N1)[C@@H](C)O)C(=O)N1CCC[C@H]1C(=O)N[C@@H](CO)C(=O)N[C@@H](CO)C(=O)N[C@H](C(=O)N[C@@H](CC(N)=O)C(=O)N[C@H](C(=O)NCC(=O)N1CCC[C@H]1C(=O)N[C@@H](CC(N)=O)C(=O)N[C@H](C(=O)N1CCC[C@H]1C(N)=O)[C@@H](C)O)C(C)C)[C@@H](C)O [Example 114] (H-K([γGlu-C20 diacid])CNTATCATQRLAEFLRHSSPNFGAIPSSTNVGPNTP-NH2; disulfide 2-7 (inferred); N-terminus assumed) | 0.9 | 0.9 | 0.9 | 0.9 | – | 0.5 | 0.5 | – | – | – | – | –
